Where a name gives a salt, the structure may show the parent alone. Where only a bound is given, the exact number is not on record here.

The target in experiment [1] is T1, ERK2 (Homo sapiens, UniProt P28482).
T1 construct: purchased Jubilant Biosys
Briefly: ERK2 HTRF (biochemical) assay. The settings on record: HTRF. Put shortly:
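Readout was time-resolved FRET between europium anti-phospho-MBP and streptavidin-APC after a 60-min room-temperature kinase step. That step used ERK2 (25 nM in enzyme mix), biotinylated MBP peptide (1 uM) and ATP (24 uM) from the substrate mix, in pH 7.5 Tris buffer.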

Experiment [2] has as its target T2, ERK1 (Homo sapiens, UniProt P27361).
T2 construct: purchased Jubilant Biosys
Briefly: ERK1 HTRF (biochemical) assay. The settings on record: HTRF. As to the method: ERK1 and ERK2 HTRF (Biochemical) Assays
These assays employed a homogeneous time resolved fluorescence (HTRF) technique. […] The plate was incubated at room temperature for 60 min with shaking. […] The IC50 values (half maximal inhibitory concentration values) were subsequently determined using a sigmoidal dose-response curve (variable slope) in GraphPad Prism® 5 software.
Background: Time-resolved FRET reads energy transfer from a long-lived donor to a nearby acceptor.

T1 sequence (P28482 whole entry): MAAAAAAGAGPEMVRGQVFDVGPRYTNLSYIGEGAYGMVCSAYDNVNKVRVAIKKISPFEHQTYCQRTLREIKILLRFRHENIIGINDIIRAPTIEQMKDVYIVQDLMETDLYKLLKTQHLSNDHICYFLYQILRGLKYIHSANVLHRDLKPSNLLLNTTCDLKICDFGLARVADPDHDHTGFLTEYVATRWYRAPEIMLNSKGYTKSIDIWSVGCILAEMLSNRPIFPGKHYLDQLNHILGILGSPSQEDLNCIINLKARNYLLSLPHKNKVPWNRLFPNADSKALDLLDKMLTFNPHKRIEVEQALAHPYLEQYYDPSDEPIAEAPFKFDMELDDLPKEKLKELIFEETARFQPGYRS
T2 sequence (P27361 whole entry): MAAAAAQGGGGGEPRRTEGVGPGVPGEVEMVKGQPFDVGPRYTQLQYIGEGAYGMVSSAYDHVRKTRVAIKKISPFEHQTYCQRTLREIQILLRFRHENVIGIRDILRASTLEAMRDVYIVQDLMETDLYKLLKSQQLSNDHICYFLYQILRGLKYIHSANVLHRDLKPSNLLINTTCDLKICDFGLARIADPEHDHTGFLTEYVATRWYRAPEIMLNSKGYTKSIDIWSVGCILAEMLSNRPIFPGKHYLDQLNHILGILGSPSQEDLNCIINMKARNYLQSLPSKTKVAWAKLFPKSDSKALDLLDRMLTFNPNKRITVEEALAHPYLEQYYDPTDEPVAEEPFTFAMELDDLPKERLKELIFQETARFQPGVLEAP

Broadly, the IC50 is the concentration needed to halve the response being measured. A low value points to inhibition by little substance. With `Cc1cnc(NC2CCN(C)C2)nc1-n1ccc(C(=O)N[C@H](CO)c2cccc(Cl)c2)c1` (stereo partly drawn) [Compound 208, N-((S)-1-(3-chlorophenyl)-2-hydroxyethyl)-1-(5-methyl-2-((1-methylpyrrolidin-3-yl)amino)pyrimidin-4-yl)-1H-pyrrole-3-carboxamide], the IC50 in experiment [1] is not above 50 nM; in experiment [2], less than 50 nM.
Consider `Cc1cnc(Nc2ccc3[nH]cc(C4=CCNCC4)c3c2)nc1-n1ccc(C(=O)NC(CO)c2cccc(Cl)c2)c1` (centres unmarked) [Compound 209, N-(1-(3-chlorophenyl)-2-hydroxyethyl)-1-(5-methyl-2-((3-(1,2,3,6-tetrahydro-pyridin-4-yl)-1H-indol-5-yl)amino)-pyrimidin-4-yl)-1H-pyrrole-3-carboxamide hydrochloride], for which the IC50 in experiment [1] was not above 50 nM; in experiment [2] it was less than 50 nM.
The matching figures for `Cc1cnc(N[C@H]2CCOC2)nc1-n1ccc(C(=O)N(C)C(CO)c2cccc(Cl)c2)c1` (stereo partly drawn) [Compound 212, N-(1-(3-chlorophenyl)-2-hydroxyethyl)-N-methyl-1-(5-methyl-2-(((S)-tetrahydrofuran-3-yl)amino)-pyrimidin-4-yl)-1H-pyrrole-3-carboxamide]: not above 50 nM and less than 50 nM.
The matching figures for `Cc1cnc(Nc2ccc(F)c(N3CCNCC3)c2)nc1-n1ccc(C(=O)NC(CO)c2cccc(Cl)c2)c1` (centres unmarked) [Compound 213, N-(1-(3-chlorophenyl)-2-hydroxyethyl)-1-(2-((4-fluoro-3-(piperazin-1-yl)phenyl)amino)-5-methylpyrimidin-4-yl)-1H-pyrrole-3-carboxamide]: not above 50 nM and less than 50 nM.
The matching figures for `Cc1cnc(NC2CCNCC2)nc1-n1cnc(C(=O)NC(CO)c2cccc(Cl)c2)c1` (centres unmarked) [Compound 214, N-(1-(3-chlorophenyl)-2-hydroxyethyl)-1-(5-methyl-2-(piperidin-4-ylamino)pyrimidin-4-yl)-1H-imidazole-4-carboxamide]: not above 50 nM and less than 50 nM.
For the compound `Cc1cnc(Nc2ccc(C3CCNCC3)cc2)nc1-n1ccc(C(=O)NC(CO)c2cccc(Cl)c2)c1` (centres unmarked) [Compound 215, N-(1-(3-chlorophenyl)-2-hydroxyethyl)-1-(5-methyl-2-((4-(piperidin-4-yl)phenyl)amino)pyrimidin-4-yl)-1H-pyrrole-3-carboxamide], the values for the IC50 in experiment [1] and in experiment [2] were not above 50 nM and 50 to 100 nM, respectively.
The matching figures for `Cc1cnc(Nc2ccc(C3CCNCC3)c(F)c2)nc1-n1ccc(C(=O)NC(CO)c2cccc(Cl)c2)c1` (centres unmarked) [Compound 216, N-(1-(3-chlorophenyl)-2-hydroxyethyl)-1-(2-((3-fluoro-4-(piperidin-4-yl)phenyl)amino)-5-methylpyrimidin-4-yl)-1H-pyrrole-3-carboxamide]: not above 50 nM and less than 50 nM.
The matching figures for `Cc1cnc(NC2CCOCC2)nc1-n1cnc(C(=O)N[C@@H](CO)c2cccc(Cl)c2)c1` [Compound 217, (R)-N-(1-(3-chlorophenyl)-2-hydroxyethyl)-1-(5-methyl-2-((tetrahydro-2H-pyran-4-yl)amino)-pyrimidin-4-yl)-1H-imidazole-4-carboxamide]: 100 to 500 nM and 100 to 500 nM.
Regarding `CC[C@@H](CO)Nc1ncc(C)c(-n2ccc(C(=O)N[C@@H](CO)c3cccc(Cl)c3)c2)n1` [Compound 218, N-((R)-1-(3-chlorophenyl)-2-hydroxyethyl)-1-(2-(((S)-1-hydroxy-butan-2-yl)amino)-5-methylpyrimidin-4-yl)-1H-pyrrole-3-carboxamide], the IC50 in experiment [1] lay in the range of 500 to 2500 nM; in experiment [2], 100 to 500 nM.
The matching figures for `CC[C@@H](CO)Nc1ncc(C)c(-n2ccc(C(=O)N[C@H](CO)c3cccc(Cl)c3)c2)n1` [Compound 219, N-((S)-1-(3-chlorophenyl)-2-hydroxyethyl)-1-(2-(((S)-1-hydroxy-butan-2-yl)amino)-5-methylpyrimidin-4-yl)-1H-pyrrole-3-carboxamide]: not above 50 nM and less than 50 nM.
The matching figures for `CC[C@@H](CO)Nc1ncc(C)c(-n2cnc(C(=O)N[C@H](CO)c3cccc(Cl)c3)c2)n1` [Compound 220, N-((S)-1-(3-chlorophenyl)-2-hydroxyethyl)-1-(2-(((S)-1-hydroxy-butan-2-yl)amino)-5-methylpyrimidin-4-yl)-1H-imidazole-4-carboxamide]: not above 50 nM and less than 50 nM.
Take `NCC(NC(=O)c1cn(-c2ccnc(Nc3ccc(F)cc3)c2)cn1)c1ccccc1` (centres unmarked) [Compound 221, N-(2-amino-1-phenylethyl)-1-(2-((4-fluorophenyl)-amino)pyridin-4-yl)-1H-imidazole-4-carboxamide]: the 50% inhibitory concentration (IC50) was not above 50 nM in experiment [1] and less than 50 nM in experiment [2].
The matching figures for `Cc1cnc(Nc2ccc(F)cc2)cc1-n1cnc(C(=O)NC(CO)c2ccccc2)c1` (centres unmarked) [Compound 222, 1-(2-((4-fluorophenyl)amino)-5-methylpyridin-4-yl)-N-(2-hydroxy-1-phenylethyl)-1H-imidazole-4-carboxamide]: 50 to 100 nM and 100 to 500 nM.
The matching figures for `Cc1cnc(Nc2ccc(F)c(N3CCOCC3)c2)nc1-n1cnc(C(=O)NC(CO)c2cccc(Cl)c2)c1` (centres unmarked) [Compound 223, N-(1-(3-chlorophenyl)-2-hydroxyethyl)-1-(2-((4-fluoro-3-morpholinophenyl)amino)-5-methyl-pyrimidin-4-yl)-1H-imidazole-4-carboxamide]: not above 50 nM and less than 50 nM.
On to `Cc1cnc(NC2CCCCC2)nc1-n1cnc(C(=O)NC(CO)c2cccc(Cl)c2)c1` (centres unmarked) [Compound 226, N-(1-(3-chloro-phenyl)-2-hydroxy-ethyl)-1-(2-(cyclohexylamino)-5-methylpyrimidin-4-yl)-1H-imidazole-4-carboxamide], for which the IC50 in experiment [1] is not above 50 nM; in experiment [2], less than 50 nM.
The matching figures for `O=C(N[C@H](CO)c1cccc(Cl)c1)c1ccn(-c2nc(NC3CCOCC3)ncc2F)c1` [Compound 229, (S)-N-(1-(3-chlorophenyl)-2-hydroxyethyl)-1-(5-fluoro-2-((tetrahydro-2H-pyran-4-yl)amino)-pyrimidin-4-yl)-1H-pyrrole-3-carboxamide]: not above 50 nM and less than 50 nM.
The matching figures for `Cc1cnc(Nc2ccc(F)cc2)cc1-n1cnc(C(=O)NC(CN)c2ccc(F)cc2)c1` (centres unmarked) [Compound 230, N-(2-amino-1-(4-fluorophenyl)ethyl)-1-(2-((4-fluoro-phenyl)amino)-5-methylpyridin-4-yl)-1H-imidazole-4-carboxamide]: not above 50 nM and less than 50 nM.
Consider `Cc1cnc(Nc2ccc(Oc3ccccc3)cc2)nc1-n1cnc(C(=O)NC(CN)c2cccc(Cl)c2)c1` (centres unmarked) [Compound 231, N-(2-amino-1-(3-chlorophenyl)ethyl)-1-(5-methyl-2-((4-phenoxyphenyl)amino)pyrimidin-4-yl)-1H-imidazole-4-carboxamide], for which the IC50 in experiment [1] is not above 50 nM; in experiment [2], less than 50 nM.
The matching figures for `Cc1cnc(Nc2ccc(F)cc2Cl)nc1-n1cnc(C(=O)NC(CN)c2cccc(Cl)c2)c1` (centres unmarked) [Compound 232, N-(2-amino-1-(3-chlorophenyl)ethyl)-1-(2-((2-chloro-4-fluorophenyl)amino)-5-methyl-pyrimidin-4-yl)-1H-imidazole-4-carboxamide]: not above 50 nM and less than 50 nM.
The matching figures for `Cc1cnc(NC2CCOCC2)nc1-n1cnc(C(=O)NC(CO)c2cccs2)c1` (centres unmarked) [Compound 233, N-(2-hydroxy-1-(thiophen-2-yl)ethyl)-1-(5-methyl-2-((tetrahydro-2H-pyran-4-yl)amino)-pyrimidin-4-yl)-1H-imidazole-4-carboxamide]: not above 50 nM and less than 50 nM.
The matching figures for `Cc1cnc(NC2CCOCC2)nc1-n1cnc(C(=O)NC(CO)c2ccsc2)c1` (centres unmarked) [Compound 234, N-(2-hydroxy-1-(thiophen-3-yl)ethyl)-1-(5-methyl-2-((tetrahydro-2H-pyran-4-yl)amino)-pyrimidin-4-yl)-1H-imidazole-4-carboxamide]: not above 50 nM and less than 50 nM.
On to `Cc1cnc(NC2CCOC2)nc1-n1cnc(C(=O)NC(CN)c2cccc(Cl)c2)c1` (centres unmarked) [Compound 235, N-(2-amino-1-(3-chlorophenyl)ethyl)-1-(5-methyl-2-((tetrahydrofuran-3-yl)amino)pyrimidin-4-yl)-1H-imidazole-4-carboxamide], for which the half-inhibitory concentration (IC50) in experiment [1] is not above 50 nM; in experiment [2] it was less than 50 nM.
The matching figures for `Cc1cnc(NC2CCOCC2)nc1-n1cnc(C(=O)NC(CO)c2cccc(C(F)(F)F)c2)c1` (centres unmarked) [Compound 237, N-(2-hydroxy-1-(3-(trifluoromethyl)-phenyl)ethyl)-1-(5-methyl-2-((tetrahydro-2H-pyran-4-yl)amino)-pyrimidin-4-yl)-1H-imidazole-4-carboxamide]: not above 50 nM and less than 50 nM.
The matching figures for `Cc1cccc(C(CO)NC(=O)c2cn(-c3nc(NC4CCOCC4)ncc3C)cn2)c1` (centres unmarked) [Compound 238, N-(2-hydroxy-1-(m-tolyl)ethyl)-1-(5-methyl-2-((tetrahydro-2H-pyran-4-yl)amino)pyrimidin-4-yl)-1H-imidazole-4-carboxamide]: not above 50 nM and less than 50 nM.
The matching figures for `Cc1cnc(NC2CCC(F)(F)CC2)nc1-n1cnc(C(=O)N[C@H](CO)c2cccc(Cl)c2)c1` [Compound 240, (S)-N-(1-(3-chlorophenyl)-2-hydroxyethyl)-1-(2-((4,4-difluorocyclo-hexyl)amino)-5-methylpyrimidin-4-yl)-1H-imidazole-4-carboxamide]: not above 50 nM and less than 50 nM.
